Data as given in patent publication US12505549B1, “Microscopy image analyses for disease modeling” (Insitro, Inc., priority 2020, dated 2025).

Key:
Assay type in all cases: cell-based
[1] = test system: human cortical excitatory neurons; assay: Neuropaint high-content imaging of neurons exposed to small molecule compounds, ML embeddings; details: 3 concentrations; DAPI, LV-Syn-GFP, Actin, Mito-tracker stains
Protocol: DoxNGN2 iPSCs were plated at two different seeding densities (1k and 6k cells) and further differentiated into human cortical excitatory neurons. Different populations of neurons were exposed to 3 different concentrations of small molecules including rotenone, everolimus, loxapine, phorbol 12-myristate 13-acetate (PMA), staurosporine, rapamycin, BIO, and blebbistatin. Neurons were also treated with controls including phosphate buffered saline and dimethyl sulfoxide (DMSO). Following treatment, phenotypic assay data was captured from the treated neurons by performing high-content imaging (e.g., Neuropaint).

[2] = test system: HepG2 and A549 cell lines; assay: Cell painting morphological manifold of compound-treated cancer cell lines (deep CNN); details: for clustering in morphological embedding (FIGS. 18A, 18B): 48 hours incubation, held-out versus training compounds; for clustering in manifold by phenotypic effect (FIG. 16H): previously unseen drugs versus previously seen drugs
Protocol: Immortalized cancer cell lines A549 and HepG2 were cultured in T150 flasks and harvested above 60% confluency. The cells were counted on a cell counter (Countess by ThermoFisher) the cell suspension was adjusted to 2000 cells per 50 μL well of a 384 well PDL coated Cell Carrier Ultra (Perkin Elmer) plates. The cells were incubated overnight in a 37 C 5% CO2 incubator and then dosed with our compound collection (at multiple concentrations in log space) in DMSO with a Labcyte Echo from Echo qualified PP2.0 plates. After dosing the cells were incubated for 48 hours in a 37 C 5% CO2 incubator. After the incubation period the plates were stained with Mito-tracker by removing the cell media, washing with PBS on a EL406 plate washer (Biotek), then adding diluted 1 mM stock concentration mitotracker dye in cell culture media to each well with a PRIME liquid handler (HighRes Biosciences). The plates were incubated for 30 minutes and then washed 1× with PBS. Formaldehyde was added to each well of each plate to fix the cells and incubated for 20 minutes and then washed 5× with PBS. 0.1% Triton in PBS was added to the plates and incubated for 15 minutes then washed 2× with PBS and a stain mixture was added to all wells of the plates. The stain mixture included 5 μg/mL Hoechst, 100 μg/mL Concanavalin Alexa Fluor 488 conjugate, 3 uM SYTO 14 green fluorescent nucleic acid stain, 5 uL/mL Phalloidin/Alexa Fluor 568 conjugate, and 1.5 μg/mL Wheat Germ Agglutinin Alexa Fluor 555 conjugate in HBSS with BSA. The plates were incubated for 30 minutes with the stain solution and then washed 4× with PBS. The plates were then imaged in a Perkin Elmer Opera Phenix microscope with 16 images taken per well for all stain wavelengths.
This is a classification task where the goal is to identify which compound was used to perturb the cells in a single well. A single well is split into 16 different fields of views (FOV) which are captured by the microscope. The raw FOV images were preprocessed by correcting the illumination. The FOV images were further cropped into smaller squares so that we can fit into memory during the training of deep convolutional neural network (CNN) models. The Hoechst channel was used to detect the nucleus and then make a square around the detected nucleus.
A deep convolutional neural network was implemented to model the classification task. It was a 150-way classification task. The residual networks (ResNets) was used as the base feature extractor network with a fully connected linear network on top to perform the classification. Standard augmentations were implemented which improved the performance and removed experimental biases. For example, intensity based augmentations like gamma contrast are helpful in removing experimental biases (batch effects). For the mechanism of action identification, some compounds were omitted (˜30 compounds out of 150) during training. During inference, the unseen compounds were embedded closer to the expected mechanism of action cluster along with the seen compounds. FIG. 18A depicts example embeddings with similar drugs clustered more closely together. Here, lovastatin is a held out, unseen drug whereas atorvastatin is a drug used for training. […] In accordance with the methodology of Example 11 (e.g., FIGS. 16A-16D) described above, using embeddings/predictions, the candidate therapy is analyzed to predict its effect (e.g., effect in reverting disease phenotype back to healthy), and further validated in vitro.

knockout treated cells = assay: Microscopy tile embeddings (deep neural network, UMAP) of WT and KO lines with treatment; details: UMAP projector calculated on untreated WT/KO tile embeddings
Text: FIG. 16C depicts an example embedding showing phenotypic distinction between wild type and knockout cells. FIG. 16C was generated by projecting embeddings extracted from a deep neural network down to two dimensions using UMAP. The neural network model was trained in a supervised manner to discriminate between sick/healthy based on labels for WT and KO lines respectively. Each point in the figure corresponds to a tile of the original microscopy image. The points represented here are only for the WT and KO groups without treatment.
FIG. 16D depicts the use of embeddings for validating known effects of treatments (e.g., rapamycin and everolimus). The following figure uses the same UMAP projector calculated on tile embeddings of WT/KO with no treatment to project the embeddings representing treatment groups into the same space.

Row | Compound | clustering in morphological embedding (FIGS. 18A, 18B) [2] | clustering in manifold by phenotypic effect (FIG. 16H) [2] | other results
1 | CN[C@@H]1C[C@H]2O[C@@](C)([C@@H]1OC)n1c3ccccc3c3c4c(c5c6ccccc6n2c5c31)C(=O)NC4 [staurosporine] |  |  | location of treated neurons in embeddings (FIG. 10C) [1]: located separate from neurons treated with other small compounds
2 | CC(C)c1c(C(=O)Nc2ccccc2)c(-c2ccccc2)c(-c2ccc(F)cc2)n1CC[C@@H](O)C[C@@H](O)CC(=O)O [atorvastatin] | clustered close together |  | 
3 | CC[C@H](C)C(=O)O[C@H]1C[C@@H](C)C=C2C=C[C@H](C)[C@H](CC[C@@H]3C[C@@H](O)CC(=O)O3)[C@H]21 [lovastatin] | clustered close together | clustered proximity to previously seen drugs | 
4 | CO[C@H]1C[C@@H]2CC[C@@H](C)[C@@](O)(O2)C(=O)C(=O)N2CCCC[C@H]2C(=O)O[C@H]([C@H](C)C[C@@H]2CC[C@@H](OCCO)[C@H](OC)C2)CC(=O)[C@H](C)/C=C(\C)[C@@H](O)[C@@H](OC)C(=O)[C@H](C)C[C@H](C)/C=C/C=C/C=C/1C [everolimus] |  |  | shift of knockout cells in image embedding (FIG. 16D) (knockout treated cells): induces knockout treated cells to revert back towards a healthy phenotype
5 | COc1ccc(-c2ccc3c(N4CCOC[C@@H]4C)nc(N4CCOC[C@@H]4C)nc3n2)cc1CO [AZD 8055] |  | clustered proximity to previously seen drugs | 
6 | COc1cc(C(=O)O)ccc1NC(=O)[C@@H]1N[C@@H](CC(C)(C)C)[C@](C#N)(c2ccc(Cl)cc2F)[C@H]1c1cccc(Cl)c1F [RG7388] |  | clustered proximity to previously seen drugs | 
